Assay [1] has as its system Pseudomonas PAO1 strain (ATCC 15692). Description: Growth of test microbe (turbidity OD600), 96-well microplate culture. It counts as cell-based. The procedure, abridged:
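P. aeruginosa PAO1 diluted in Mueller Hinton Broth, exposed to test compound (ethanol stock evaporated onto DMSO in wells) and grown static at 30° C for 24 h; growth read as OD600. Growth inhibition % = (1 − compound OD600/ethanol-control OD600) × 100.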

For assay [2], the system named is biofilm-forming microbe isolated from cooling water taken from a water cooling tower. As to the kind of experiment: Biofilm inhibition test, quinone-based compound and organic solvent (OD570). It counts as cell-based. The settings on record: alone or added as test solution in organic solvent, no addition gave 2.831. The method, then:
A biofilm-forming microbe (microbe providing a OD570 value of 0.3 or more in the test for determining the amount of biofilm in the following section 4-3) isolated from cooling water taken from a water cooling tower was cultured in R2A culture medium at 30° C. for 16 hours while shaking. The turbidity (OD600) of the resultant culture solution was measured. The culture solution was diluted with R2A culture medium to prepare a suspension of 10^3 cfu/mL.
The suspension of a test microbe prepared in the above section 4-1) was added in individual wells of a 96 well microplate in an amount of 150 μL. Thereafter, the test solution prepared in the above section 2) was add and culture was initiated.
The 96 well microplate was subjected to stationary culture performed at 30° C. for 48 hours. The culture solution was removed and the resultant microplate was washed with water. Subsequently, each well was stained with 0.1% crystal violet and 200 μL of ethanol was added. The absorbance (OD570) was measured to obtain the amount of biofilm (BF) formed.

For `CC1=CC(=O)C=CC1=O` [Compound a, p-Toluquinone], the “Growth OD600” value in assay [1] (final concentration 7 ppm, EtOH control 0.5913) was 0.645; in assay [1] (final concentration 20 ppm, EtOH control 0.6346) it was 0.5907; in assay [1] (final concentration 33 ppm, EtOH control 0.668), 0.6284; in assay [1] (final concentration 67 ppm, EtOH control 0.628), 0.5489; in assay [1] (final concentration 200 ppm, EtOH control 0.6045) it was 0.3857; in assay [1] (final concentration 333 ppm, EtOH control 0.6088) it was 0.3334. Moreover, the “Growth inhibition (%)” value is listed as 14.2% in assay [1] (final concentration 17 ppm); 15.4% in assay [1] (final concentration 33 ppm); “— (No growth inhibition or no BF inhibition)” in assay [1] (final concentration 66 ppm); “— (No growth inhibition or no BF inhibition)” in assay [1] (final concentration 99 ppm); 1.8% in assay [1] (final concentration 116 ppm); 1.2% in assay [1] (final concentration 132 ppm). In addition, the “microbial growth (in words)” value in assay [1] (high concentration range of 200 ppm or more) is given as “inhibited”. Besides, the values for the OD570 in assay [2] (Toluquinone 10 ppm) and in assay [2] (Toluquinone 20 ppm) were 0.119 and 0.083, respectively.

These data come from patent publication US20190124918A1, “BIOFILM FORMATION INHIBITOR AND BIOFILM FORMATION INHIBITING COMPOSITION” (KAO CORPORATION, priority 2016, published 2019).
